Experimental data reported in patent US20120238533A1, “(Heteroarylmethyl) Thiohydantoins as anticancer drugs” (BAYER PHARMA AKTIENGESELLSCHAFT, priority 2009, published 2012).

Legend:
[1] = system: Eker rat leiomyoma tumor-derived cells (Elt3); experiment: Proliferation of Eker rat leiomyoma tumor-derived cells (Elt3), CellTiter-Glo viability assay; type: cell-based; conditions: for proliferation of Eker rat myoma cell line (Elt3): different concentrations, 7 days incubation, FIG. 1 and FIG. 2, range comparable to estradiol
Method: Elt3 cells were obtained from Cheryl Walker (University of Texas). In comparison to other cells, Elt3 cells were characterized to be tumorigenic in nude mice (C. Walker, Recent Prog. Horm. Res., January 2002; 57: 277). Elt3 cells were grown to confluence in T-75 flasks with DMEM containing 10% FCS at 37° C. and 5% CO2. The medium was changed into 1% CCS for 24 h. 1000 cells were seeded in 96-well-plates for 24 hours. Elt3 cells were incubated with test compounds for 7 days. The CellTiter-Glo® Luminescent Cell Viability Assay (Promega) was used for determination of the number of viable cells in culture based on quantitation of the ATP present, an indicator of metabolically active cells.
Elt3 cells were obtained and grown to confluence and were seeded as described above. Elt3 cells were incubated with test compounds for 7 days. The CellTiter-Glo® Luminescent Cell Viability Assay (Promega) was used for determination of the number of viable cells in culture based on quantitation of the ATP present, an indicator of metabolically active cells.

[2] = system: human uterine leiomyoma xenografts; experiment: Xenograft of human uterine leiomyoma in immunodeficient mice, graft weight; type: in vivo; conditions: 60 d, SCID mice with E2 and P pellets, p<0.05
Method: Human uterine leiomyoma (UL) tissue was derived from any form of surgical intervention indicated for the respective diagnosis, either by hysterectomy with subsequent preparation of the tissues or by myomenucleation with or without morcellation for removal of the tissue from the abdominal cavity. Immediately after the surgery the UL tissue was placed into an appropriate sterile buffer (Vitron V7 buffer (U.S. Pat. No. 5,328,821) or Viaspan buffer for organ transplantation) at 4° C. for transport from the clinic. Under a sterile workbench, the UL tissue was cut into small pieces of 2×2×2 mm while keeping the tissue constantly moist. The small pieces of tissue were placed in tissue wells with PBS at room temperature for xenotransplantation. (M Fritsch et al. 2010, ISGE abstract & presentation). […] Therefore, graft weight was taken as a primary read-out parameter for growth of UL tissue (FIGS. 5 and 6). […]
(§1) Experiment 2 (the Thioxoimidazolidine Derivative as Androgen Receptor Antagonist)—FIGS. 6 and 7 • Human myoma tissue from two different patients was grafted s.c. in SCID mice; and the mice were treated as described in method above. […] BrdU positive nuclei were visualized by immunohistochemical staining in formalin-fixed graft sections, pictures were taken, and BrdU-positive nuclei per area were counted using the MIRAX Histoquant software (3DHISTECH Ltd, Budapest, Hungary). […]

primary myoma cells = experiment: Proliferation of primary myoma cells, CellTiter-Glo viability assay; type: cell-based, human; conditions: 10^−6 M, 7 days; p<0.05 vs. DMSO; FIG. 3; range comparable to estradiol
[3] = system: human uterine leiomyoma xenografts; experiment: Human xenograft cell proliferation (BrdU positive nuclei) in immunodeficient mice; type: in vivo; conditions: last week of Experiment 2, 15 mg/kg/d p.o. daily; two donors; FIG. 7
Method: Human uterine leiomyoma (UL) tissue was derived from any form of surgical intervention indicated for the respective diagnosis, either by hysterectomy with subsequent preparation of the tissues or by myomenucleation with or without morcellation for removal of the tissue from the abdominal cavity. Immediately after the surgery the UL tissue was placed into an appropriate sterile buffer (Vitron V7 buffer (U.S. Pat. No. 5,328,821) or Viaspan buffer for organ transplantation) at 4° C. for transport from the clinic. Under a sterile workbench, the UL tissue was cut into small pieces of 2×2×2 mm while keeping the tissue constantly moist. The small pieces of tissue were placed in tissue wells with PBS at room temperature for xenotransplantation. (M Fritsch et al. 2010, ISGE abstract & presentation). […] Therefore, graft weight was taken as a primary read-out parameter for growth of UL tissue (FIGS. 5 and 6).
as §1

CC(O)(CS(=O)(=O)c1ccc(F)cc1)C(=O)Nc1ccc(C#N)c(C(F)(F)F)c1 (stereo not drawn) [bicalutamide, N-[4-cyano-3-(trifluoromethyl)phenyl]-3-[(4-fluorophenyl)sulfonyl]-2-hydroxy-2-methylpropanamide]
effect on DHT-induced proliferation of Elt3 cells ([1]; 10^−7 M bicalutamide with 10^−9 M DHT, p<0.05 vs. DHT, FIG. 4): abolished
graft weight reduction vs. respective controls ([2]; Experiment 1: 15 mg/kg/d p.o. every 2nd day, tissue from three patients, FIG. 5): > 30%

C[C@]12CCC(=O)C[C@@H]1CC[C@@H]1[C@@H]2CC[C@]2(C)[C@@H](O)CC[C@@H]12 [dihydrotestosterone, 5α-dihydrotestosterone]
proliferation of Elt3 cells ([1]; 10^−9 M DHT, 7 days, p<0.05 vs. DMSO, FIG. 4): significantly increased
proliferation of Eker rat myoma cell line (Elt3) [1]: dose-dependent increase of proliferation
proliferation of primary myoma cells (primary myoma cells): significantly induce an increase of proliferation

C[C@]12CC[C@H]3[C@@H](CCC4=CC(=O)CC[C@@]43C)[C@@H]1CC[C@@H]2O [testosterone]
proliferation of Eker rat myoma cell line (Elt3) [1]: dose-dependent increase of proliferation
proliferation of primary myoma cells (primary myoma cells): significantly induce an increase of proliferation

CC(C)(O)COc1ccc(CN2C(=S)N(c3ccc(C#N)c(C(F)(F)F)c3)C(=O)C2(C)C)cn1 [thioxoimidazolidine derivative, 4-(3-{[6-(2-hydroxy-2-methylpropoxy)pyridin-3-yl]methyl}-4,4-dimethyl-5-oxo-2-thioxoimidazolidin-1-yl)-2-(trifluoromethyl)benzonitrile]
graft weight reduction vs. respective controls ([2]; Experiment 2: 15 mg/kg/d p.o. daily, tissue from two patients, FIG. 6): > 50%
proliferation of grafts (BrdU-positive nuclei per area) [3]: clearly reduced
